According to a melting point compilation (Tetko et al.; mined from patent text by program, amines drawn as free bases though some values may be those of a salt):

| SMILES | melting point [°C] |
| --- | --- |
| COCc1csc(C(=O)C2C(=O)N(C(N)=O)c3ccc(Cl)cc32)c1 (stereo unspecified) | 193 to 195 |
| CN1C(=O)C(c2c[nH]c3ncccc23)=C(c2cn(C(=O)OC(C)(C)C)c3ccccc23)C1=O | 180 |
| OCCN(CCO)Cc1nnc2n1-c1ccc(Cl)cc1C(c1ccccc1)=NC2 | 84 to 87 |
| CN(C)c1ccc(CN[C@@H](C(=O)O)[C@H](O)[C@H](Cc2ccccc2)NC(=O)OC(C)(C)C)cc1 | 202 to 204 |
| Cc1cc(-n2ccnc2)c2cccc(OCc3c(Cl)ccc(N(C)C(=O)CN4C(=O)c5ccccc5C4=O)c3Cl)c2n1 | 200 to 203 |
| O=c1oc(-c2cccc(C(F)(F)F)c2)nc2cccc(F)c12 | 115 to 121 |
| O=C(Nc1c([N+](=O)[O-])cnn1-c1c(Cl)cc(C(F)(F)F)cc1Cl)C1CCCO1 (stereo unspecified) | 169 to 172 |
| CCCCCCCCCCCCCCCCCCOc1cc(C(N)=O)cc(N(CC(=O)O)CC(=O)O)c1 | 213 to 216 |
| CCOC(=O)/C=C/c1cn(-c2ccccc2)nc1OCc1ccc(OCc2nc(-c3ccco3)oc2C)cc1 | 142 to 143 |
| CCOCc1nc2c(N)nc3cc(N4CCCC4=O)ccc3c2n1CC(C)(C)O | 200 to 202 |
| COC(=O)CCc1cnoc1-c1ccc(-c2ccccc2)cc1 | 103 to 104 |
| O=C(c1ccn2c1CSC2c1cccnc1)c1cn(S(=O)(=O)c2ccccc2)c2cc(-c3ccc(F)cc3)ccc12 (stereo unspecified) | 115 to 116 |
| Cc1ccc(C2CC(=O)CC(c3ccc(C)cc3)N2C)cc1 (stereo unspecified) | 105 to 107 |
| COC(=O)CN1C(=O)CN=C(c2ccccc2)c2cc(Cl)ccc21 | 137 to 138 |
| COc1cc(Nc2c(C#N)cnc3cc4cc(OCCN5CCOCC5)c(OC)cc4cc23)c(Cl)cc1C | 220 to 222 |
| Cc1c(Cl)cccc1N=Cc1ccccc1O | 95 to 97 |
| CCCOc1cc(CCCOc2c(CC(=O)O)cccc2OC)n(Cc2ccc(C(F)(F)F)cc2)n1 | 122 to 123 |
| Cc1ccc(Cl)c(C(N)=O)c1N | 149 to 152 |
| O=C(c1ccc2c(c1)C(=O)N1CCC[C@H]1CO2)N1CCCCC1 | 140 |
| O=C(c1c(O)c2ccccc2c2nc3ccccc3nc12)N1CCOCC1 | 223 to 225 |
| C=CCn1c(=O)[nH]c(=O)n(-c2ccccc2)c1=O | 63 to 65 |
| O=C(N[C@H]1CC[C@H](CCN2CCC(c3cccc4c3CCO4)CC2)CC1)C(F)(F)F | 173 |
| Ic1ccc2c(c1)C(c1ccccc1)=NCc1nnc(Cc3ccccc3)n1-2 | 200 to 201 |
| Cc1cc(CCCOc2c(Cl)cc(C(=O)O)cc2Cl)on1 | 156 to 157 |
| CC(C)(C)NCC(O)c1cc(Br)c(N)c(C(N)=O)c1 (stereo unspecified) | 135 to 145 |
| CC(=O)C(=O)C(=O)OC(C)(C)C | 62 to 66 |

| SMILES | melting point [°C] |
| --- | --- |
| NC(=O)C(CCc1ccccn1)(c1ccccc1)c1ccccc1 | 145 to 146 |
| CCCCCCCc1ccc(-c2ccc(OC)cc2)nc1 | 54.4 to 56.5 |
| [N-]=[N+]=Nc1ccc(C=Cc2ccncc2)cc1 | 88.2 to 89.4 |
| CCCCCCN(C(=O)Nc1ccc(C(=O)O)cc1)c1ccc2c(c1)C(C)(C)CCC2(C)C | 177 |
| COC(=O)CCCNC(=O)CNS(=O)(=O)c1ccc2ccccc2c1 | 187 to 189 |
| CCOC(=O)Nc1ccc2oc(Cc3ccccc3)cc2c1 | 95 |
| Cn1ncc(C(=O)N2CCCC2)c1C(=O)Nc1ccn2nc(-c3cccnc3)nc2c1 | 226 to 228 |
| Cn1nc(Oc2ccc([N+](=O)[O-])c(N)c2)cc1C(F)(F)F | 91 to 92 |
| Sc1ncc(-c2ccccc2)s1 | 207 to 209 |
| COC(=O)C1=C(O)c2cc(OC)ccc2S(=O)(=O)N1 | 183 |
| CCCCCCC(Oc1ccc(C2=CCCCC2)cc1)C(=O)O (stereo unspecified) | 70 to 71 |
| NC1N=CC=CC1(N)Br (stereo unspecified) | 158 to 160 |
| Fc1ccccc1NC1(c2nnn[nH]2)CCN(Cc2ccccc2)CC1 | 195 to 198 |
| CCOC(=O)c1c(CSc2ccccc2)n(C)c2cc(Br)c(O)cc12 | 196 to 197 |
| CCOC(=O)C(Cc1ccccc1)NC(=O)COc1ccc(C2=NNC(=O)NC2)cc1Cl (stereo unspecified) | 180 to 181 |
| CC1(C)CC(=O)C(SCC2CCCCC2)=C(O)C1 | 67.5 to 69.5 |
| CN(C)S(=O)(=O)c1ccccc1-c1cnc(N)c(C(=O)Nc2cccnc2)n1 | 222 to 223 |
| Cc1ccc(NC(=O)c2cccc(C(F)(F)F)c2)cc1Br | 153 to 155 |
| CN1CCOc2cc(N)ccc2C1=O | 169 to 170 |
| CN(C)c1ccc(C=CC(=O)c2ccc3c(c2)CCCC3)cc1 | 134 to 135 |
| COc1cc(-c2cccc3ccccc23)nc(N)n1 | 160 |
| Cc1ccc(Cl)c2sc(O)nc12 | 266 |
| O=C(NCc1ccccn1)c1ccc(N2CCN(C(=O)c3ccccc3C(F)(F)F)CC2)nn1 | 179 to 181 |
| CC(=O)NCC1CN(c2ccc(N3CCN(C(=O)COC(=O)c4cccnc4)CC3)c(F)c2)C(=O)O1 (stereo unspecified) | 173 to 175 |
| CCOC(=O)c1cn(CC(F)(F)F)c2cc3c(cc2c1=O)OCO3 | 204 to 206 |
| Cc1cccc(OC(C)(C)C(=O)NCCc2ccc(OC(C)(C)C(=O)O)cc2)c1 | 85 to 88 |

| SMILES | melting point [°C] |
| --- | --- |
| Cc1ccc(N2CN(C(C)(C)C)C3=NN=CC3=C2N)cc1 | 203 to 204 |
| Cc1ccc(OCn2c(-c3nonc3NCCC#N)nc3ccccc32)cc1C | 132 to 135 |
| CON=Cc1ccc2c(c1)c1c(n2Cc2cccc(F)c2)CCC(NC(=O)C(C)C)C1 (stereo unspecified) | 180 to 182 |
| c1ccc2c(c1)CCN(Cc1n[nH]c3ccccc13)C2 | 151 to 152 |
| COc1ccc2cc(C#N)c(=O)oc2c1C | 215 |
| COC(=O)C1Cc2cc(Br)ccc2N1C(=O)c1ccccc1 (stereo unspecified) | 168 to 169 |
| O=C(O)c1cc(Cl)c(OCc2ccccc2)c(Cl)c1 | 211 to 213 |
| CN(C)CC=Cc1ccc2c(c1)CCN2C(=O)c1ccc(-c2ccccc2)cc1 | 174 to 176 |
| c1ccc(-c2cc3cnccc3[nH]2)cc1 | 276 to 278 |
| CSc1ccc(-c2coc3ccc(-c4nnc(O)o4)cc23)cc1 | 211 to 212 |
| O=C(Nc1ccccc1)n1[nH]c(C(F)(F)F)cc1=O | 109 to 110 |
| CC1(C)OC(=O)Nc2ccc(-c3cccc([N+](=O)[O-])c3)cc21 | 244 to 245 |
| O=C(NCCc1ccccc1)Nc1ccc(CN2C(=O)[C@H]3CCC[C@H]3N(C(=O)CN3C(=O)c4ccccc4C3=O)c3ccccc32)cc1 (relative stereo) | 145 to 147 |
| Cc1ccc(S(=O)(=O)N2CCCC(CSc3ccccc3)C2)cc1 (stereo unspecified) | 66.7 |
| NS(=O)(=O)c1sccc1C(F)=C(F)Cl | 112 to 116 |
| COC(=O)[C@@H]1C(=O)NC[C@H]1c1ccc(Cl)cc1 | 166 |
| COC(=O)COc1cccc2c1CCC(Cc1coc(C(c3ccccc3)c3ccccc3)n1)C2 (stereo unspecified) | 91 to 93 |
| CCCC(CCC)C(=O)NCC(=O)CCCCCCCCCCCCN(N)C(=O)n1cc(F)c(=O)[nH]c1=O | 116 to 118 |
| Cc1ccc(S(=O)(=O)C(CC(=O)C(C)(C)C)c2ccc(Cl)cc2)cc1 (stereo unspecified) | 170 to 171 |
| COc1ccc2[nH]c3c(c2c1)CCN(C(C)=O)C3C (stereo unspecified) | 198 to 200 |
| O=Cc1ncn2c1[C@@H]1CCCN1C(=O)c1ccccc1-2 | 206 to 208 |
| CCCOCCOC(=O)C1=C(C)NC(C)=C(S(=O)(=O)NC(C)C)C1c1cccc([N+](=O)[O-])c1 (stereo unspecified) | 155 to 158 |
| COc1ccc(C(=O)c2ccc(OCc3nc(-c4ccccc4)oc3C)cc2C)c(O)c1 | 109 to 110 |
| Cc1cc(=S)c(OCC(=O)O)co1 | 120 to 125 |
| COc1cc(-c2ncc(C(F)(F)F)cc2OC)ccc1Cl | 62 to 63 |
| CCCCCCCCCCN1CCN(O)C1=O | 68 to 69 |

| SMILES | melting point [°C] |
| --- | --- |
| CC12CCC(=O)C=C1CCC1C2CCC2(C)C1CC(O)C2NCC(=O)C(F)(F)F (stereo unspecified) | 217 to 220 |
| CC(=O)NC[C@H]1CN(c2ccc(-c3nc(Cn4ccnc4)co3)c(F)c2)C(=O)O1 | 198 to 200 |
| CC(C)=CC(=O)N[C@H]1CC[C@H](CCN2CCC(c3cccc4c3CCO4)CC2)CC1 | 177 |
| Cc1cc(C)nc(NC(C(=O)O)C(c2ccccc2)c2ccccc2)n1 (stereo unspecified) | 172 to 174 |
| CCCCNC(P(=O)(O)O)P(=O)(O)O | 188 to 189 |
| COc1ccc(-c2cc(=O)n(CCc3ccc(Cl)cc3)nc2-c2ccc(OC)cc2)cc1 | 133 to 134 |
| CCOc1ccc(-c2ccc3c(c2)C=C(C(=O)OC)CCN3)cc1OCC | 159 to 164 |
| Cc1cc(C#Cc2cccc(-c3ccccc3)c2)ccn1 | 56 to 58 |
| C=CCCn1cnc2c1c(=O)n(C)c(=O)n2C | 110 |
| Cc1ccc(S(=O)(=O)NCCCCOc2ccc(-c3nnn[nH]3)cc2)cc1 | 180 to 182 |
| CC(=O)OC1C(OC2=NN(Cc3ccccc3)C(=O)C3CC23)c2cc(C#N)ccc2OC1(C)C (stereo unspecified) | 149 to 151 |
| Cc1ccc2c3c(ccc2n1)OCC(CN1CCC(C#N)(c2ccccc2)CC1)O3 (stereo unspecified) | 185 to 187 |
| O=C(O)c1ccc(OCCNC(=O)C2Cc3ccccc3N2S(=O)(=O)c2ccc(-c3ccc(F)cc3)cc2)cc1 (stereo unspecified) | 108 |
| Cc1ccc2c(c1O)NC(O)C1CCCN1C2=O (stereo unspecified) | 154 to 156 |
| NS(=O)(=O)c1cscc1C(=O)Cl | 236 to 238 |
| C/C=C/C(=O)NCCn1c(CCCC)nc2c(N)nc3cccnc3c21 | 198 to 200 |
| [N-]=[N+]=N[C@@H](C(=O)O)C(c1ccccc1)c1ccccc1 | 108 to 110 |
| CC(C)(C)N1CC(O)C1 | 42 to 43 |
| Cc1c(Cc2ccc(C(C)C)cc2)c2c(c(C)c1NC(=O)CC(C)(C)C)C(c1ccccc1)CO2 (stereo unspecified) | 137 to 141 |
| CCn1c(C)nc(OCc2ccc(OCc3ccc(F)cc3)cc2)c(C)c1=O | 81 to 82.3 |
| COC(OC)C(CNC(=O)c1cc2cc(O)cc([N+](=O)[O-])c2[nH]1)SCc1ccccc1 (stereo unspecified) | 134 to 135 |
| COC(=O)/C=C(\C)c1ccc(OCc2nc(-c3ccccc3)oc2C)cc1 | 125 to 126 |
| CCOC(=O)Cn1c(=O)c(=O)[nH]c2cc(Br)ccc21 | 282 to 283 |
